Source: patent publication US11786495B2 (priority 2021, dated 2023)
Counter-ions that a name gives are not always drawn.

Tests used:
[1] = TEC vs. Lipinski criteria for CNS drug like properties; conditions: four criteria: MW, LogP, HBD, HBA
[2] = 70 kg man, estimated, extrapolated from animal models; cited from earlier work
[3] = tested on: beta amyloid protein; conditions: varying concentrations of sodium citrate; thioflavin T positive aggregates; cited from earlier work
[4] = model of spinal stenosis; cited from earlier work

## CCOC(=O)CC(O)(CC(=O)OCC)C(=O)OCC [TEC, Triethyl citrate]
[1]
  Lipinski criteria met for a CNS drug: Three out of four
[2]
  LD50: ~500 cc

## O=C([O-])CC(O)(CC(=O)[O-])C(=O)[O-].[Na+].[Na+].[Na+] [sodium citrate]
[3]
  Dissolution of calcium-produced beta amyloid aggregates: aggregates dissolve in response to citrate concentration

## O=C(O)CC(O)(CC(=O)O)C(=O)O [Citrate]
[4]
  Bone calcium: decrease bone calcium
